# Laboratory results from ChEMBL document CHEMBL4480413, “Cytotoxic Withanolides from the Roots of Indian Ginseng ( Withania somnifera)” (J Nat Prod, 2019).
# What was measured:
# Format in all cases: functional, cell-based
# [1] = system: HCT-15; experiment: Cytotoxicity against human HCT15 cells after 72 hrs by SRB assay
# [2] = system: A549; experiment: Cytotoxicity against human A549 cells after 72 hrs by SRB assay
# [3] = system: SK-OV-3; experiment: Cytotoxicity against human SKOV3 cells after 72 hrs by SRB assay
# [4] = system: SK-MEL-2; experiment: Cytotoxicity against human SK-MEL-2 cells after 72 hrs by SRB assay
# [5] = Homo sapiens, HCT-15, 72 h, read-out: IC50
# [6] = Homo sapiens, A549, 72 h, read-out: IC50
# [7] = Homo sapiens, SK-OV-3, 72 h, read-out: IC50
# [8] = Homo sapiens, SK-MEL-2, 72 h, read-out: IC50
SMILES,"IC50 [1, 5]","IC50 [2, 6]","IC50 [3, 7]","IC50 [4, 8]",IC50 ([1]; hct-15),IC50 ([2]; a549),IC50 ([3]; sk-ov-3),IC50 ([4]; sk-mel-2)
C[C@H]1C[C@H]([C@](C)(O)[C@H]2CC[C@H]3[C@@H]4[C@H](O)C=C5CC=CC(=O)[C@]5(C)[C@H]4CC[C@]23C)OC(=O)[C@@H]1C,5.7 µM,> 10 µM,8.8 µM,5.9 µM,,,,
CC1=C(C)C(=O)O[C@@H]([C@](C)(O)[C@H]2CC[C@H]3[C@@H]4[C@H](O)C=C5CC=CC(=O)[C@]5(C)[C@H]4CC[C@]23C)C1,5.1 µM,> 10 µM,7.9 µM,3.4 µM,,,,
CC1=C(CO)C(=O)O[C@@H]([C@](C)(O)[C@H]2CC[C@H]3[C@@H]4[C@@H]5O[C@@H]5[C@@]5(O)CC=CC(=O)[C@]5(C)[C@H]4CC[C@]23C)C1,,,,,Not Active,Not Active,Not Active,Not Active
CC1=C(C)C(=O)O[C@@H]([C@](C)(O)[C@@]2(O)CC[C@H]3[C@@H]4[C@@H]5O[C@@H]5[C@@]5(O)CC=CC(=O)[C@]5(C)[C@H]4CC[C@@]32C)C1,,,,,Not Active,Not Active,Not Active,Not Active
COc1cc([C@@H]2c3cc4c(cc3[C@@H](O[C@@H]3O[C@@H]5CO[C@@H](C)O[C@H]5[C@H](O)[C@H]3O)[C@H]3COC(=O)[C@H]23)OCO4)cc(OC)c1O [ETOPOSIDE],0.46 µM,0.71 µM,1.83 µM,0.79 µM,,,,
CC1=C(C)C(=O)O[C@@H]([C@@H](C)[C@]2(O)CC[C@H]3[C@@H]4[C@@H]5O[C@@H]5[C@@]5(O)CC=CC(=O)[C@]5(C)[C@H]4CC[C@@]32C)C1,,,,,Not Active,Not Active,Not Active,Not Active
CC(=O)O[C@@H]1C[C@H]2[C@@H]3[C@@H]4O[C@@H]4[C@@]4(O)CC=CC(=O)[C@]4(C)[C@H]3CC[C@]2(C)/C1=C(\C)[C@H]1CC(C)=C(CO)C(=O)O1,7.6 µM,> 10 µM,> 10 µM,10 µM,,,,
CC1=C(C)[C@H](O)[C@H]([C@](C)(O)[C@H]2CC[C@H]3[C@@H]4[C@@H]5O[C@@H]5[C@@]5(O)CC=CC(=O)[C@]5(C)[C@H]4CC[C@]23C)OC1=O,9.8 µM,> 10 µM,> 10 µM,9.2 µM,,,,
C[C@H]1C[C@H]([C@](C)(O)[C@H]2CC[C@H]3[C@@H]4[C@@H]5O[C@@H]5[C@@]5(O)CC=CC(=O)[C@]5(C)[C@H]4CC[C@]23C)OC(=O)[C@@H]1C,,,,,Not Active,Not Active,Not Active,Not Active
CC1=C(C)C(=O)O[C@@H]([C@@H](C)[C@@]2(O)CC[C@H]3[C@@H]4[C@@H]5O[C@@H]5[C@@]5(O)CC=CC(=O)[C@]5(C)[C@H]4CC[C@@]32C)C1 [WITHANONE],5.9 µM,> 10 µM,> 10 µM,6.1 µM,,,,
C[C@H]([C@H]1C[C@H](C)[C@@H](C)C(=O)O1)[C@@]1(O)CC[C@H]2[C@@H]3[C@@H]4O[C@@H]4[C@@]4(O)CC=CC(=O)[C@]4(C)[C@H]3CC[C@@]21C,,,,,Not Active,Not Active,Not Active,Not Active
CC1=C(CO)C(=O)O[C@@H](/C(C)=C2\[C@H](O)C[C@H]3[C@@H]4[C@@H]5O[C@@H]5[C@@]5(O)CC=CC(=O)[C@]5(C)[C@H]4CC[C@]23C)C1,,,,,Not Active,Not Active,Not Active,Not Active
CC1=C(CO)C(=O)O[C@@H]([C@@H](C)[C@@]2(O)CC[C@H]3[C@@H]4[C@@H]5O[C@@H]5[C@@]5(O)CC=CC(=O)[C@]5(C)[C@H]4CC[C@@]32C)C1,,,,,Not Active,Not Active,Not Active,Not Active
CC1=C(C)C(=O)O[C@@H]([C@](C)(O)[C@H]2CC[C@H]3[C@@H]4[C@@H]5O[C@@H]5[C@@]5(O)CC=CC(=O)[C@]5(C)[C@H]4CC[C@]23C)C1 [WITHANOLIDE A],,,,,Not Active,Not Active,Not Active,Not Active
